From patent publication EP4349333A1, “USE OF AMINOPYRIDINE, IN PARTICULAR AMIRAMPRIDINE, IN THE TREATMENT OF VIRALLY ASSOCIATED FATIGUE” (Böhmeke, Thomas, priority 2022, dated 2024)

Tests used:
[1] = test system: Fatigue-Symptomatik nach Covid-Infektion; experiment: Off-label case reports (Fall 1-3) in fatigue after Covid infection; assay type: in vivo, Patienten
Text: (§1) In den nachfolgend genannten Anwendungsbeispielen wurde 3,4-Diaminopyridin Amifamprindin (Formulierung als Fertigarzneimittel) verabreicht. Im Rahmen der doppelt-blind Studie wurden gleich aussende Kapseln mit Amifampridin oder Placebo apothekenseitig verblindet zubereitet, wobei nur apothekenseitig bekannt war welche Kapseln Wirkstoff oder Placebo enthielten.
Ruhebedürfnis bis zu 20 Stunden pro Tag (brain fog) sowie ausgeprägter Konzentrationsschwäche.
Im Fall 2 wird eine Patientin beschrieben, die ebenfalls unter einer gravierenden Fatigue-Symptomatik nach Covid-Infektion 5/22 litt, eine zuzuordnende neurologische oder internistische Grunderkrankung bestand nicht. […] Die nachfolgenden Labor- und EKG-Kontrollen zur Erfassung substanzassoziierter Komplikationen waren unauffällig.
Im Fall 3 wird ein Patient beschrieben, der nach zweimaliger Covid-Infektion unter Fatigue-Symptomatik mit einem Schlafbedürfnis bis zu 2 x 9 Stunden pro Tag litt.

[2] = test system: Fatigue-Symptomatik bei Post-Covid-Syndrom; experiment: Further study / case series Pat. 1-5: Bell-Score and sleep need in post-Covid syndrome; assay type: in vivo, Patienten
Text: (§2) Die Bell-score (oder skala) ist ein Massstab der Behinderung bei ME & CFS. Auch für Long Covid-Patient:innen ist sie geeignet. Die Bell-Skala ist individuell, da jeder Patientinnen eine unterschiedliche Belastungsintoleranz aufweist und das Erleiden von schweren Symptomen in Ruhe verhältnismässig unterschiedlich sein kann.
Es wurde eine weitere Studie an einer Patientengruppe durchgeführt.
Die Prävalenz eines Post-Covid-Syndroms (PCS) liegt bei 10-15 % nach SARS-COV-2-Infektion, neben spezifischen Organerkrankungen treten vielfältige funktionelle Beschwerden auf, vorrangig eine Fatigue-Symptomatik. Diese ist gekennzeichnet durch persistierende Müdigkeit, Schwäche, kognitive Defizite sowie vermehrtem Schlafbedürfnis. In dieser Studie bzw. Fallserie wird der Effekt von Amifampridin bei Patienten mit PCS beschrieben, die unter unphysiologisch gesteigertem Schlafbedürfnis sowie eingeschränkter Kognition litten. Zur Evaluation wurde der Bell-Score verwendet, der auf die Einschränkung der Vigilanz, körperlichen Belastbarkeit und Berufstätigkeit fokussiert.

[3] = test system: Lambert-Eaton-Myasthenie-Syndrom (LEMS); settings: cited from earlier work
[4] = test system: Fatigue-Symptomatik nach SARS-COV-2-Infektion; experiment: Patients 2.1 to 2.5: Bell-Score and sleep need with Amifampridin (Fig. 1 and 2); assay type: in vivo, Patienten
Text: as §2
Die nachfolgenden Dosierungen der Patienten 2.1 bis 2.5 und die veränderten Bell-Sore Werte sowie das Schlafbedürfnis in Stunden sind in den Figuren 1 und 2 dargestellt (Fig. 1 Bells-Sore mit und ohne Amifampridin, Patienten 2.1 bis 2.5, Fig. 2: kumulierte Schlafzeit in 24 h).

[5] = test system: Fatigue-Symptomatik nach SARS-COV-2-Infektion; experiment: Double-blind withdrawal trial, verum and placebo for 3 days each; assay type: in vivo, Patienten; settings: Pat. 2.1; on Amifampridin at start of verum phase (4 x 5 mg per day, days 1-3)
Experimental: as §1
Bei Pat. 2.1 und 2.2 waren zur Rekonvaleszenz eine Dauermedikation mit jeweils 20 mg Amifampridin pro Tag erforderlich und boten damit Voraussetzungen für einen doppelt-blinden Auslassversuch über jeweils 3 Tage.
Pat. 2.1 mit Verum an Tagen 1-3, nachfolgend Placebo an den Tagen 4-6: Pat. (Pat. 2.1) mit Bell-Score 90 begann bereits mit Amifampridin, wie vorstehend beschrieben, und setzte diese mit Blister mit 6 Tagesdosen je Tag ein Fach mit Kapseln für 3 Tage mit je 4 mal 5 mg Amifampridin fort. Die Dosierung betrugt jeweils für 3 Tage Placebo mit je 4mal Placebo-Kapseln für Patient 1 und 2 (Verum und Placebo).

[6] = test system: Fatigue-Symptomatik bei MS-Patienten; settings: described in the literature; cited from earlier work
[7] = Pat. 5 (LEMS), 3 or 4 x 5 mg as daily dose
[8] = Pat. 2.5 (LEMS), initial 3 x 5 mg

Nc1ccncc1N [Amifampridin, Pyridin-3,4-diamin]
muskuläre Defizite ([1]; Fall 1): umgehende Besserung | Fatigue-Symptomatik ([1]; Fall 1, since Covid infection, sleep/rest need up to 20 Stunden pro Tag before): schlagartige Besserung | Labor- und EKG-Kontrollen zur Erfassung substanzassoziierter Komplikationen ([1]; Fall 2): unauffällig | Fatigue-Symptomatik ([1]; Fall 2, 5 mg): komplette Besserung | Konzentrationsfähigkeit ([1]; Fall 2, 5 mg): vollständiger Restitution | zuzuordnende Nebenwirkung ([1]; Fall 2, 5 mg): leichte periorale Parästhesien | Fatigue ([1]; Fall 2, Tagesdosis 3 x 5 mg): sistiert die vorbestehende Fatigue vollständig | Konzentrationsfähigkeit ([1]; Fall 3, 5 mg): schlagartigen Besserung | Nebenwirkung (periorale Parästhesien) ([1]; Fall 3, 5 mg): transiente periorale Parästhesien mit sehr geringer Intensität | Schlaf- und Ruhebedürfnis ([1]; Fall 3, 5 mg): physiologischem | Schlafbedürfnis ([2]; Pat. 1, after 3 intakes of 5 mg over 24 h, before 12): 7 Stunden / 24h | Bell-Score ([2]; Pat. 1, after 3 intakes of 5 mg over 24 h, before 20 to 40): 100 | Vigilanz ([2]; Pat. 2, after 3 doses of 5 mg): uneingeschränkte Vigilanz | Schlafbedürfnis ([2]; Pat. 2, after 3 doses of 5 mg, before 12): 7,5 Stunden /24 h | Bell-Score ([2]; Pat. 2, after 3 doses of 5 mg, before 40): 100 | Schlafbedürfnis ([2]; Pat. 3, after one intake of 5 mg, before 11 to 12): 7-9 Stunden | Bell-Score ([2]; Pat. 3, after one intake of 5 mg, before 40): 100 | duration of the effect ([2]; Pat. 3, one intake of 5 mg): ~36 Stunden | Bell-Score ([2]; Pat. 4, 3 x 5 mg over 24 h, before 20, Post-Covid-Myokarditis): 50 | Fatigue [2, 7]: sistierte die Fatigue | muskuläre Belastbarkeit [2, 7]: gebesserte muskuläre Belastbarkeit | Schlafbedürfnis ([2]; Pat. 5 (LEMS), 3 or 4 x 5 mg as daily dose, before 16 to 18): 8-9 Stunden / 24h | Fatigue-Symptomatik ([2]; patient group of the further study, Post-Covid-Syndrom): reduzierte Fatigue-Symptomatik | koindizierte Fatigue ([3]; LEMS-Patienten, stated as known): Besserung | Schlafbedürfnis ([4]; Pat. 2.1, after single intake of 5 mg, before 12): 7 Stunden / 24h | Bell-Score ([4]; Pat. 2.1, after single intake of 5 mg, before 20 to 40): 100 | duration of the effect ([4]; Pat. 2.2, 5 mg): ~36 Stunden | Schlafbedürfnis ([4]; Pat. 2.2, after 5 mg, before 11-12): 7-9 Stunden | Bell-Score ([4]; Pat. 2.2, after 5 mg, before 40): 80 | Vigilanz ([4]; Pat. 2.3, after 5 mg): uneingeschränkte Vigilanz | Schlafbedürfnis ([4]; Pat. 2.3, after 5 mg, before 12): 7,5 Stunden /24 h | Bell-Score ([4]; Pat. 2.3, after 5 mg, before 40): 100 | Bell-Score in Bezug auf die muskulären Defizite ([4]; Pat. 2.5 (LEMS), 3 x 20 mg plus 5 mg if needed (60 to 70 mg per day)): ca. 20 | Fatigue [4, 8]: sistierte die Fatigue | muskuläre Belastbarkeit [4, 8]: gebesserte muskuläre Belastbarkeit | Bell-Score ([4]; Pat. 2.5 (LEMS), initial 3 x 5 mg, before 10): 80 | Schlafbedürfnis ([4]; Pat. 2.5 (LEMS), initial 3 x 5 mg, before 16-18): 8-9 Stunden / 24h | Bell-Score ([4]; Patientin 2.4, after 5 mg, before 20, Post-Covid-Myokarditis): 50 | Bell-Score [5]: 90

Nc1ccncc1N [Amifampridine Phosphate (Firdapse), Amifampridine Phosphate]
koinzidente Fatigue ([3]; LEMS, 20 bis 80 mg als Tagesdosen, J Clin Neuromuscul Dis. 2019): Besserung einer koinzidenten Fatigue

Nc1ccncc1 [Fampridin]
begleitende Fatigue-Symptomatik [6]: Besserung
